Measurements: US8044236B2, “Carboxilic acid derivatives” (Institute of Medicinal Molecular Design, Inc., priority 2006, dated 2011)

Target: recombinant human PAI-1 (Homo sapiens, UniProt P05121)
Assay: Test Example 1: human PAI-1 inhibitory activity (tPA fluorogenic substrate, pH7.5 Tris buffer)
Type: biochemical
Design: purchased Molecular Innovations, Inc
Conditions: Tris buffer pH7.5
Experimental: In a 96-well multiplate (black), 1.5 μl of DMSO solution of the present application compound prepared to achieve 80-fold the test concentration (=the final concentration when fluorogenic substrate is added) was diluted with 52.5 μl of pH7.5 Tris buffer. […] Furthermore, 30 μl of 800 IU/ml two-chain tPA (Activity Standard; American diagnostics, inc.) prepared by Tris buffer was added, and the mixed solution was incubated for 15 minutes at room temperature. To this, 30 μl of 400 μM fluorogenic substrate (Pyr-Gly-Arg-MCA; Peptide Institute, Inc.) for tPA prepared by Tris buffer was added and reacted for 30 minutes at room temperature.
<Composition of pH7.5 Tris Buffer)

recombinant human PAI-1, sequence (P05121 24-402): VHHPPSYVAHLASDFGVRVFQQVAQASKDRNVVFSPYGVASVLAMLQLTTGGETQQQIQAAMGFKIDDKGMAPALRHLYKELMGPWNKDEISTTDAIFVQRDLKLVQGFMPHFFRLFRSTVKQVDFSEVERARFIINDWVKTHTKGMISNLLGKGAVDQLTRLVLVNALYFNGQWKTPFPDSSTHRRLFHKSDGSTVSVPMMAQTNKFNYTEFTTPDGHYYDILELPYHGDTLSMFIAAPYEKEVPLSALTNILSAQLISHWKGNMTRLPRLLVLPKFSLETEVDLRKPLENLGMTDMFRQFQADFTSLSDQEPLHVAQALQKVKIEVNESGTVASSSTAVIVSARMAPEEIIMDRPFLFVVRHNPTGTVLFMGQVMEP

Structure (SMILES) | Inhibition Rate of Human PAI-1 Activity (%) (compound 5 μM) | Inhibition Rate of Human PAI-1 Activity (%) (compound 10 μM) | Inhibition Rate of Human PAI-1 Activity (%) (compound 25 μM)
O=C(O)CCc1cc(-c2ccc(OC(F)(F)F)cc2)ccc1OCc1ccc(Cl)cc1Cl [Compound 32, 3-[4-(2,4-dichlorobenzyloxy)-4′-(trifluoromethoxy)biphenyl-3-yl]propanoic acid] | 5 | 29 | 92
CCCCc1ccc(COc2ccc(-c3ccc(OC(F)(F)F)cc3)cc2CCC(=O)O)cc1 [Compound 35, 3-[4-(4-butylbenzyloxy)-4′-(trifluoromethoxy)biphenyl-3-yl]propanoic acid] |  |  | >99
CC(C)(C)c1ccc(COc2ccc(-c3ccccc3)cc2/C=C/C(=O)O)cc1 [Compound 36, (E)-3-{4-[4-(tert-butyl)benzyloxy]biphenyl-3-yl}propenoic acid] | 21 | 49 | 89
CC(C)(C)c1ccc(COc2ccc(-c3ccccc3)cc2CCC(=O)O)cc1 [Compound 37, 3-{4-[4-(tert-butyl)benzyloxy]biphenyl-3-yl}propanoic acid] | 22 | 47 | 97
CC(C)(C)c1ccc(COc2ccc(-c3ccc(F)cc3)cc2/C=C/C(=O)O)cc1 [Compound 38, (E)-3-{4-[4-(tert-butyl)benzyloxy]-4′-fluorobiphenyl-3-yl}propenoic acid] | 23 | 53 | 96
CC(C)(C)c1ccc(COc2ccc(-c3ccc(F)cc3)cc2CCC(=O)O)cc1 [Compound 39, 3-{4-[4-(tert-butyl)benzyloxy]-4′-fluorobiphenyl-3-yl}propanoic acid] | 24 | 53 | 99
CC(C)(C)c1ccc(COc2ccc(-c3ccc(C(F)(F)F)cc3)cc2/C=C/C(=O)O)cc1 [Compound 40, (E)-3-{4-[4-(tert-butyl)benzyloxy]-4′-(trifluoromethyl)biphenyl-3-yl}propenoic acid] | 28 | 57 | 95
CC(C)(C)c1ccc(COc2ccc(-c3ccc(C(F)(F)F)cc3)cc2CCC(=O)O)cc1 [Compound 41, 3-{4-[4-(tert-butyl)benzyloxy]-4′-(trifluoromethyl)biphenyl-3-yl}propanoic acid] | 23 | 60 | 99
COc1ccc(-c2ccc(OCc3ccc(C(C)(C)C)cc3)c(/C=C/C(=O)O)c2)cc1 [Compound 42, (E)-3-{4-[4-(tert-butyl)benzyloxy]-4′-methoxybiphenyl-3-yl}propenoic acid] | 23 | 47 | 84
COc1ccc(-c2ccc(OCc3ccc(C(C)(C)C)cc3)c(CCC(=O)O)c2)cc1 [Compound 43, 3-{4-[4-(tert-butyl)benzyloxy]-4′-methoxybiphenyl-3-yl}propanoic acid] | 14 | 34 | 93
CC(C)(C)c1ccc(COc2ccc(-c3ccc(C(C)(C)C)cc3)cc2/C=C/C(=O)O)cc1 [Compound 44, (E)-3-{4′-(tert-butyl)-4-[4-(tert-butyl)benzyloxy]biphenyl-3-yl}propenoic acid] | 25 | 56 | 94
CC(C)(C)c1ccc(COc2ccc(-c3ccc(C(C)(C)C)cc3)cc2CCC(=O)O)cc1 [Compound 45, 3-{4′-(tert-butyl)-4-[4-(tert-butyl)benzyloxy]biphenyl-3-yl}propanoic acid] | 22 | 66 | >99
CCCCc1ccc(-c2ccc(OCc3ccc(C(C)(C)C)cc3)c(CCC(=O)O)c2)cc1 [Compound 48, 3-{4′-butyl-4-[4-(tert-butyl)benzyloxy]biphenyl-3-yl}propanoic acid] | 29 | 66 | 94

Second part, the molecule after the results:

Inhibition Rate of Human PAI-1 Activity (%) (compound 5 μM) | Inhibition Rate of Human PAI-1 Activity (%) (compound 10 μM) | Inhibition Rate of Human PAI-1 Activity (%) (compound 25 μM) | Structure (SMILES)
16 | 25 | 21 | CSc1ccc(-c2ccc(OCc3ccc(C(C)(C)C)cc3)c(/C=C/C(=O)O)c2)cc1 [Compound 49, (E)-3-{4-[4-(tert-butyl)benzyloxy]-4′-(methylsulfanyl)biphenyl-3-yl}propenoic acid]
22 | 47 | 91 | CC(C)(C)c1ccc(-c2ccc(OCc3ccccc3)c(/C=C/C(=O)O)c2)cc1 [Compound 52, (E)-3-[4-benzyloxy-4′-(tert-butyl)biphenyl-3-yl]propenoic acid]
20 | 50 | 93 | CC(C)(C)c1ccc(-c2ccc(OCc3ccccc3)c(CCC(=O)O)c2)cc1 [Compound 53, 3-[4-benzyloxy-4′-(tert-butyl)biphenyl-3-yl]propanoic acid]
32 | 69 | 94 | CC(C)(C)c1ccc(-c2ccc(OCc3ccc(OC(F)(F)F)cc3)c(/C=C/C(=O)O)c2)cc1 [Compound 56, (E)-3-{4′-(tert-butyl)-4-[4-(trifluoromethoxy)benzyloxy]biphenyl-3-yl}propenoic acid]
28 | 64 | 94 | CC(C)(C)c1ccc(-c2ccc(OCc3ccc(OC(F)(F)F)cc3)c(CCC(=O)O)c2)cc1 [Compound 57, 3-{4′-(tert-butyl)-4-[4-(trifluoromethoxy)benzyloxy]biphenyl-3-yl}propanoic acid]
19 | 32 | 74 | O=C(O)CCc1cc(-c2ccccc2)ccc1OCc1ccc(OC(F)(F)F)cc1 [Compound 58, 3-{4-[4-(trifluoromethoxy)benzyloxy]biphenyl-3-yl}propanoic acid]
21 | 46 | 95 | COc1ccccc1-c1ccc(OCc2ccc(C(C)(C)C)cc2)c(/C=C/C(=O)O)c1 [Compound 61, (E)-3-{4-[4-(tert-butyl)benzyloxy]-2′-methoxybiphenyl-3-yl}propenoic acid]
22 | 47 | 91 | COc1ccccc1-c1ccc(OCc2ccc(C(C)(C)C)cc2)c(CCC(=O)O)c1 [Compound 62, 3-{4-[4-(tert-butyl)benzyloxy]-2′-methoxybiphenyl-3-yl}propanoic acid]
